Consider 23 compounds from US20070032418A1, “Small-molecule inhibitors of angiogenin and rnases and in vivo and in vitro methods of using same” (Ambion, Inc, priority 2003, published 2007).

Where two headings read alike, the source gives them in different places.

By IC50 is commonly meant the concentration at which inhibition is half-maximal. Read a low IC50 as greater potency in that assay. A word on the Ki: it is the dissociation constant of the complex between target and ligand, obtained from inhibition or displacement.

For assay [1], the target named is MMLV RT RNase H (Moloney murine leukemia virus, UniProt P03355). Description: Inhibition of RT-based RNase H cleavage of RNA:DNA hybrid. In kind it is biochemical. The conditions noted are these: for % Cleavage: no inhibitor: 36%, 5 min at 37 C. The method, then: As described above, Chembridge compound #467929 offered protection from several RNA-specific endonucleolytic activities. […] A 20-mer DNA oligonucleotide was asymmetrically annealed to a 1500 base synthetic RNA to create an RNA:DNA duplex substrate for RNase H. Reactions were initiated with 10 U of MMLV RT in 1×RT buffer (50 mM TrisCl pH 8.3, 75 mM KCl, 3 mM MgCl2, 5 mM DTT) containing 500 ng/ul RNA:DNA hybrid. All reactions contained 5% DMSO either with or without the small molecule RNase inhibitor. Samples were incubated for 5 min at 37 C, and quenched with EDTA. Products were resolved on an RNA LabChip. Cleavage products were observed as two equally represented RNA species of 1000 and 500 bases. Product length and yield were determined using the 2100 BioAnalyzer software (Agilent). Table 4 details the level of inhibition of MMLV RT RNase H that is observed as a function of the concentration of compounds 467929 and 227726.

The target of assay [2] is angiogenin (ANG) (Homo sapiens, UniProt P03950). Description: Inhibition of ANG ribonucleolytic activity, HPLC assay of oligonucleotide cleavage. The assay is classed as biochemical. The method, then: Reaction mixtures with and without test compounds were chromatographed on a Mono Q anion-exchange column with an NaCl gradient in 10 mM Tris, pH 8. […] This information was used to calculate kcat/Km values, which were then fitted to the equation (kcat/Km)i=(kcat/Km)0/[…], where (kcat/Km)i and (kcat/Km)0 are defined as the values in the presence and absence of inhibitor, respectively, and [I] is defined as the inhibitor concentration. At least four concentrations (in a range of about 10 μM-above 100 μM) were used in the final hit confirmation in order to distinguish all true hits.
Chemical structures of selected compounds are shown in these Tables and in FIGS. 4 and 5.

In assay [3] the target is T1, bovine pancreatic RNase A (Bos taurus, UniProt P61823).
T1 sequence (P61823 27-150): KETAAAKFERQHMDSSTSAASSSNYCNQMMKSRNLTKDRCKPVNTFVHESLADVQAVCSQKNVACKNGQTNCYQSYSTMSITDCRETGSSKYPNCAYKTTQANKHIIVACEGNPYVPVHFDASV
Nature of the assay: Inhibition of bovine pancreatic RNase A (specificity versus ANG). In kind it is biochemical.

In assay [4] the test system is PC-3 human prostate tumor cells. Nature of the assay: PC-3 tumor formation in athymic mice. The assay is classed as in vivo. The note with it: PC-3 s.c. The method, then:
Compound NCI-65828 was identified by HTS as an ANG inhibitor. […] Each compound was administered 6 times per week, in doses of 40 μg, 8 μg, and 1.6 μg (about 2, 0.4 and 0.08 mg/kg/day). The compound was dissolved in DMSO, and control mice received a corresponding volume of DMSO (4%, 0.8% and 0%). Another control group received saline.
Another in vivo mouse experiment was performed using 8 or 12 mice per group. The experimental group was administered PC-3 cells and NCI-65828, as intraperitoneal injections (40 μg and 8 μg). A control group of mice was administered PC-3 cells and a related compound that was known to be ineffective at inhibiting ANG enzymatic activity. Mice were evaluated for number of animals that remained tumor free as a function of time, at intervals of 3 days from days 14-42 following the initial injection.
Concentrated stocks of inhibitors were prepared in dimethylsulfoxide (DMSO), and the inhibitors were diluted into phosphate-buffered saline (PBS); the final DMSO concentration for the 40 μg and 20 μg doses was 4% in PBS, and that for the 8 μg and 4 μg doses was 0.8% in PBS. Statistical significance (P values) was determined from Mantel-Cox tests performed on Kaplan-Meier survivor functions. Results for inhibitor-treated groups were compared to results obtained with the appropriate DMSO control groups. A positive control group of mice, administered antisense DNA specific for the ANG gene in PBS (no DMSO), was also included. ANG antisense DNA was shown previously to be extremely effective in this tumor model.
Tumor cells from a human prostate cancer (PC-3) were injected subcutaneously (s.c.) in the shoulder of 6-7 week old athymic (nude) mice on day 0. Treatment with the indicated amount of inhibitor (in 100 μL) was given subcutaneously in the same area as the cells, 6 times per week, with the first injection 5-10 minutes prior to injection of the cells. The total dosage was 0.4 mg to 2 mg per kg per day.

The mark [5] stands for this setting: 20 mM Hepes, 100 mM NaCl, pH 7.0, 37° C., read-out: Ki for inhibition of the ribonucleolytic activity of angiogenin.
[6] abbreviates: inhibition of ANG-catalyzed cleavage of an RNA oligonucleotide, 20 mM Hepes, 100 mM NaCl, 37° C., read-out: KI.

angiogenin (ANG), sequence (P03950 25-147): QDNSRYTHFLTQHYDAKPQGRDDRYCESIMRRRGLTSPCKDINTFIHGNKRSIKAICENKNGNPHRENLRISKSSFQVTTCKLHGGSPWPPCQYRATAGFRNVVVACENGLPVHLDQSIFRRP

In turn, `O=C(Nc1ccc(Cc2ccc(NC(=O)c3cccc([N+](=O)[O-])c3)c(C(=O)O)c2)cc1C(=O)O)c1cccc([N+](=O)[O-])c1` [CB-467929] gave an IC50 in assay [1] of approximately 20 µM. For the same compound, the “% Cleavage” value in assay [1] (inhibitor 8 μM) is 42%; in assay [1] (inhibitor 40 μM), 8%. The inhibition constant (Ki) in assay [2] (setting [5]) was 24 µM.
Take `O=C(Nc1ccc(Cc2ccc(NC(=O)c3ccc(-c4ccccc4)cc3)c(C(=O)O)c2)cc1C(=O)O)c1ccc(-c2ccccc2)cc1` [CB-473872]: the Ki in assay [2] (setting [5]) stood at 20 µM. In addition, in assay [3], the “Tighter binding to ANG than to RNase A” value is on record as 2.3 fold.
Consider `O=[N+]([O-])c1cc(/N=N/c2c(O)ccc3cc(S(=O)(=O)O)ccc23)c(O)c([N+](=O)[O-])c1` [NCI-65820], for which the inhibition constant (Ki) in assay [2] (read-out: KI) was 25 µM. In assay [3], the “Tighter binding to ANG than to RNase A” value amounted to 1.5 fold.
Take `O=S(=O)(O)c1ccccc1/N=N/c1c(S(=O)(=O)O)cc2cc(S(=O)(=O)O)c(/N=N/c3ccccc3S(=O)(=O)O)c(O)c2c1O` [NCI-174066]: the inhibitory constant (Ki) in assay [2] (read-out: KI) was found to be 234 µM.
In assay [2], `O=C(O)CC(NC(=O)CP(=O)(O)O)C(=O)O` (stereo not shown) [NCI-224131] gave an inhibition constant Ki of more than 500 µM.
With `O=C(N/N=C(\c1ccccc1)c1ccncc1)c1ccccc1` [NCI-227726, N′-[phenyl(4-pyridinyl)methylene] benzohydrazide, reference compound], the “% Cleavage” value was found to be 45% in assay [1] (inhibitor 100 μM), 43% in assay [1] (inhibitor 524 μM) and 47% in assay [1] (inhibitor 1000 μM).
With `O=C(Nc1ccc(/C=C/c2ccc(NC(=O)c3cc(S(=O)(=O)O)c4ccncc4c3O)cc2S(=O)(=O)O)c(S(=O)(=O)O)c1)c1cc(S(=O)(=O)O)c2ccncc2c1O` [NCI-665534-P], the Ki in assay [2] (read-out: KI) was 5 µM.
Consider `Nc1ccc(/N=N/c2ccc(-c3ccc(S(=O)(=O)O)cc3)cc2)c2ccc(S(=O)(=O)O)cc12` [NCI-724225], for which the inhibition constant Ki in assay [2] (read-out: KI) came to 81 µM.
Consider `O=S(=O)(O)c1cc(S(=O)(=O)O)c2c(/N=N/c3ccccc3)c(O)ccc2c1` [Orange G], for which the Ki in assay [2] (read-out: KI) came out at 83 µM.
As for `Nc1ccc2cc(S(=O)(=O)O)cc(O)c2c1N=Nc1ccccc1S(=O)(=O)c1ccccc1` [S321443], the Ki in assay [2] (read-out: KI) was more than 500 µM.
Turning to `Nc1ccc(/N=N/c2ccc(-c3ccc(O)cc3)cc2)c2ccc(S(=O)(=O)O)cc12` [Tyger-65828], in assay [2] (20 mM Hepes, 100 mM NaCl, pH 7.0, 37° C.), the “Ki for inhibition of the ribonucleolytic activity of angiogenin” value is listed as “indistinguishable from that of the NCI compound”. Also, in assay [4] (4 μg s.c. 6 times per week), the “Percentage of Tumor-Bearing Mice, day 14” value was 8%; the “Percentage of Tumor-Bearing Mice, day 17” value was found to be 42%; the “Percentage of Tumor-Bearing Mice, day 21” value stood at 67%; the “Percentage of Tumor-Bearing Mice, day 24” value is on record as 100%. In assay [4] (4 μg s.c. 6 times per week), the “Percentage of Tumor-Bearing Mice, day 32” value came out at 100% and the “Percentage of Tumor-Bearing Mice, day 35” value is given as 100%. For the same compound, in assay [4] (8 μg s.c. 6 times per week), the “Percentage of Tumor-Bearing Mice, day 14” value stood at 0%; the “Percentage of Tumor-Bearing Mice, day 17” value is on record as 45%; the “Percentage of Tumor-Bearing Mice, day 21” value was found to be 55%; the “Percentage of Tumor-Bearing Mice, day 24” value was 82%. Further, in assay [4] (8 μg s.c. 6 times per week), the “Percentage of Tumor-Bearing Mice, day 32” value turned out to be 91% and the “Percentage of Tumor-Bearing Mice, day 35” value was determined as 100%. In assay [4] (20 μg s.c. 6 times per week), the “Percentage of Tumor-Bearing Mice, day 14” value was 0%; the “Percentage of Tumor-Bearing Mice, day 17” value is given as 25%; the “Percentage of Tumor-Bearing Mice, day 21” value is given as 33%; the “Percentage of Tumor-Bearing Mice, day 24” value is on record as 92%. Further, in assay [4] (20 μg s.c. 6 times per week), the “Percentage of Tumor-Bearing Mice, day 32” value was determined as 100% and the “Percentage of Tumor-Bearing Mice, day 35” value was 100%. Moreover, in assay [4] (40 μg s.c. 6 times per week), the “Percentage of Tumor-Bearing Mice, day 14” value turned out to be 8%; the “Percentage of Tumor-Bearing Mice, day 17” value is 33%; the “Percentage of Tumor-Bearing Mice, day 21” value was determined as 33%; the “Percentage of Tumor-Bearing Mice, day 24” value was determined as 83%. Also, in assay [4] (40 μg s.c. 6 times per week), the “Percentage of Tumor-Bearing Mice, day 32” value worked out at 92% and the “Percentage of Tumor-Bearing Mice, day 35” value was 100%. Also, in assay [4] (treatment s.c. 6 times per week), the “Time of appearance of tumors (Example 3, Table 1)” value was “delayed considerably the time of appearance of tumors”.
On to `CC(=O)Nc1ccc(/N=N/c2c(N)ccc3cc(S(=O)(=O)O)cc(O)c23)c(S(=O)(=O)O)c1` [acid red 37], for which the Ki in assay [2] (read-out: KI) was 70 µM.
On to `CC(=O)Nc1ccc(N=Nc2c(S(=O)(=O)O)cc3cc(S(=O)(=O)O)cc(NC(C)=O)c3c2O)cc1` [acid violet 7], for which the inhibitory constant (Ki) in assay [2] (setting [6]) turned out to be 71 µM.
For the compound `Nc1ccc2cc(S(=O)(=O)O)cc(O)c2c1/N=N/c1ccc(-c2ccc(/N=N/c3ccc(O)c(C(=O)O)c3)cc2)cc1` [direct red 1], the Ki in assay [2] (read-out: KI) stood at 14 µM.
Regarding `Nc1ccc2cc(S(=O)(=O)O)cc(O)c2c1N=Nc1ccc(-c2ccc(N=Nc3cc(S(=O)(=O)O)c4ccccc4c3N)cc2)cc1` [direct red 13], the inhibition constant Ki in assay [2] (read-out: KI) came out at 112 µM.
With `O=S(=O)(O)c1cc(S(=O)(=O)O)c2c(/N=N/c3ccc(S(=O)(=O)O)c4ccccc34)c(O)ccc2c1` [new coccine], the inhibition constant Ki in assay [2] (read-out: KI) is 69 µM.
As for `Cc1cc(-c2ccc(/N=N/c3c(N)ccc4cc(S(=O)(=O)O)ccc34)c(C)c2)ccc1N` [prBZBP], the inhibition constant (Ki) in assay [2] (read-out: KI) was determined as 20 µM.
In the case of `O=S(=O)(O)c1ccc(/N=N/c2c(O)ccc3cc(S(=O)(=O)O)ccc23)cc1` [sunset yellow], the inhibition constant Ki in assay [2] (read-out: KI) came to 85 µM.
`Cc1ccc(C(=O)Nc2ccc(S(=O)(=O)O)c3cc(S(=O)(=O)O)cc(S(=O)(=O)O)c23)cc1NC(=O)c1cccc(NC(=O)Nc2cccc(C(=O)Nc3cc(C(=O)Nc4ccc(S(=O)(=O)O)c5cc(S(=O)(=O)O)cc(S(=O)(=O)O)c45)ccc3C)c2)c1` [suramin, reference compound]: in assay [2] (read-out: KI), the inhibitory constant (Ki) amounted to 10 µM.
Same read-out and setting: the value for `Cc1cc(S(=O)(=O)O)ccc1N=c1ccc2c(-c3ccccc3C(=O)O)c3ccc(Nc4ccccc4C)cc3oc-2c1` [violamine R] was 107 µM.
Compound `Cc1ccc(/N=N/c2c(O)c(S(=O)(=O)O)cc3cc(S(=O)(=O)O)ccc23)c(C)c1` [xylidene ponceau 2R] gave an inhibitory constant (Ki) in assay [2] of 49 µM.
For cefsulodin [reference compound], in assay [2] (setting [6]), the inhibition constant (Ki) amounted to 201 µM.
Same read-out and setting: the value for eriochrome black T was 50 µM.
